Data: ChEMBL document CHEMBL1201862, “PubChem BioAssay data set” (2004)
Activity calls are given as the source filed them.

What was measured:
HEK293 [1] = assay: cytotoxicity in HEK293T NF-kB-Luc cells, SAR follow-up, cytotoxicity control for NF-kB activator project, cell-based, resazurin fluorescence (AID 493251); format: functional; conditions: Homo sapiens
Jurkat [2] = assay: SAR Analysis of small molecule inhibitors of T-cell specific antigen receptor-induced NF-kB activation in a Jurkat cell line using a luminescence assay - Set 2. [Related pubchem assays (depositor defined):AID435003, AID435012, AID465]; format: functional, cell-based; conditions: Homo sapiens
HEK293 [3] = assay: SAR Analysis of small molecule inhibitors of T-cell specific antigen receptor-induced NF-kB activation in a HEK-293T cell line using a luminescence assay - Set 2. [Related pubchem assays (depositor defined):AID435003, AID435012, AID489026]; format: functional, cell-based; conditions: Homo sapiens
[4] = target: Dual specificity protein kinase CLK1 (Homo sapiens, UniProt P49759); assay: CLK1 kinase inhibitors, off-target check, dose response, selectivity assay for Dyrk1A inhibitor project, biochemical, cherry-picked samples (AID 588811)
Chain of Dual specificity protein kinase CLK1 (P49759 whole entry): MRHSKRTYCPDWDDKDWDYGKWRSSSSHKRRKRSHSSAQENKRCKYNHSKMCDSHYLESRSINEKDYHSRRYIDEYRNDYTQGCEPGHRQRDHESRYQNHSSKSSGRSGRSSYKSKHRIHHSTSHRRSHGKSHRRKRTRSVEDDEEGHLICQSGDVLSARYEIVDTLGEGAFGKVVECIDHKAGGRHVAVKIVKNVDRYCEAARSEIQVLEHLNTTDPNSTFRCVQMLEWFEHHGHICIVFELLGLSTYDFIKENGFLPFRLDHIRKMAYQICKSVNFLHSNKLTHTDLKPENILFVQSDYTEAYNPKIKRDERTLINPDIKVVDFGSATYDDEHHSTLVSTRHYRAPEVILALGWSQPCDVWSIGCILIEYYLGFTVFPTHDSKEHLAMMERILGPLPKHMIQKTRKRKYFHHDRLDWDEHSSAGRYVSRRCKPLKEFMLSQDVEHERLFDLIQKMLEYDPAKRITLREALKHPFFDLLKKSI

[5] = inhibitors of firefly luciferase expression or activity, dose response, H4 neuroglioma cells, luminescence (AID 1990); format: functional, cell-based
[6] = Luminescence Cell-Based Dose Response HTS to Identify Inhibitors of 5'UTR Stem-Loop Driven Prion Protein mRNA Translation in H4 Neuroglioblastoma Cells. [Related pubchem assays: 1827 (Project Summary), 1813 (Primary HTS)]; format: functional
[7] = target: T1, Heat shock factor protein 1 (Mus musculus, UniProt P38532); assay: inhibition of MG132-induced HSE-luciferase signal, confirmation, cell-based, NIH3T3, luminescence, dose retest (AID 2382); format: functional;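 further: NIH3T3 fibroblasts with HSF1-driven luciferase reporter stressed by proteasome inhibitor MG132; luminescence from HSF1-driven luciferase expression after 8 hours of MG132 stress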
T1 sequence (P38532 whole entry): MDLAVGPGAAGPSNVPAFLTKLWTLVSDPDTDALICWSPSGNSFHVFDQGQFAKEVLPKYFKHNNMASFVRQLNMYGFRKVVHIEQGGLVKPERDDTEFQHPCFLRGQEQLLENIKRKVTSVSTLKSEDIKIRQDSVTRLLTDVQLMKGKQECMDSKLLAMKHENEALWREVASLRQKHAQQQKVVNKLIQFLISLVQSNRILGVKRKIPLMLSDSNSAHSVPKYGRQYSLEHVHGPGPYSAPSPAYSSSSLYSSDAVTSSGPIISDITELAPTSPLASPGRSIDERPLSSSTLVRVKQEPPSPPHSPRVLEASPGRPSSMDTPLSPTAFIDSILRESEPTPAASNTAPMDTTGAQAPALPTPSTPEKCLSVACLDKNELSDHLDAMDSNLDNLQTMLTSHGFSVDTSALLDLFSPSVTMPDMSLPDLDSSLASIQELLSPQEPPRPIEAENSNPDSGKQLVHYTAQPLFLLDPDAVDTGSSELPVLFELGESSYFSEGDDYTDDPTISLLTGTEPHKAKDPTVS

[8] = inhibitors of SNCA 5'UTR-driven reporter translation, confirmation, H4 neuroglioma cells, luminescence (AID 1988); format: functional, cell-based
Jurkat [9] = assay: antigen receptor-induced NF-kB inhibitors, dose response, Jurkat, luciferase reporter, luminescence, B- and T-cell (AID 489004); format: functional, cell-based; conditions: Homo sapiens;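 further: NF-kB luciferase reporter Jurkat cells stimulated with PMA plus ionomycin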
[10] = cytotoxicity in HEK-293T NF-kB-Luc cells, dose response, cytotoxicity control for B/T-cell NF-kB inhibitor project, cell-based, uHTS hits (AID 489019); format: functional;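 further: IC50 reflects cytotoxicity as loss of cell viability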
P388/ADR = assay: cells; format: functional; conditions: Mus musculus
SN12K1 = assay: cells; format: functional; conditions: Homo sapiens
P388 = assay: cells; format: functional; conditions: Mus musculus
[11] = target: T2, Zinc finger protein mex-5 (Caenorhabditis elegans, UniProt Q9XUB2); assay: MEX-5/TCR-2 RNA interaction inhibitors, dose response, biochemical, C. elegans, fluorescence polarization (AID 1960)
T2 sequence (Q9XUB2 whole entry): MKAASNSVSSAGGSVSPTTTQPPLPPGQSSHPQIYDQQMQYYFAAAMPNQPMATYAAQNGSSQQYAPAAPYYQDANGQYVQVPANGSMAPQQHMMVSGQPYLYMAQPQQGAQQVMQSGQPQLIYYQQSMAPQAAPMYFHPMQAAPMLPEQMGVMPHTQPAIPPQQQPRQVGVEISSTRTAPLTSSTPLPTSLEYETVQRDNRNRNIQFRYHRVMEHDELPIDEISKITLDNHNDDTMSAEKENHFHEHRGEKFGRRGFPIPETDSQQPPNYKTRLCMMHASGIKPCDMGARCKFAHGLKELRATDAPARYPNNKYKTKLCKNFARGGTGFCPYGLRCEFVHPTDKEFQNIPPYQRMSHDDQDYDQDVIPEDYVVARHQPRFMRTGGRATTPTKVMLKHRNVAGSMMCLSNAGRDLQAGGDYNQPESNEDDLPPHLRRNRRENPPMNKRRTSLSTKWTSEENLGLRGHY

Cysteine protease ATG4B = target: T3, Cysteine protease ATG4B (Homo sapiens, UniProt Q9Y4P1); format: functional;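 further: Fluorescence-based dose-response confirmation assay measuring inhibition of ATG4B activity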
T3 sequence (Q9Y4P1 whole entry): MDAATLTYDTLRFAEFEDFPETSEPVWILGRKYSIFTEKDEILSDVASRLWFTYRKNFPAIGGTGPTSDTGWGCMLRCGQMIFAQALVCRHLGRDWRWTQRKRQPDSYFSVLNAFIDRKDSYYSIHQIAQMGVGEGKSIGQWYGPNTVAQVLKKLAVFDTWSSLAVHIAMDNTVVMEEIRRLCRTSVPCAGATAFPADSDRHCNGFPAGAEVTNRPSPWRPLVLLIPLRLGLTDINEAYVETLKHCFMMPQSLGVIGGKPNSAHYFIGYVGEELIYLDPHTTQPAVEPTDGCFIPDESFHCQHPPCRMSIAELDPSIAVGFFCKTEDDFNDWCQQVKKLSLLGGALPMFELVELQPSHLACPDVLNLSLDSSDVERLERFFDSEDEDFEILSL

Phospholipase A2 = Phospholipase A2 (Homo sapiens, UniProt P04054); format: functional;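 further: confirmatory dose-response counterscreen on phospholipase A2, testing hits that came from an ultra-high-throughput screen for ATG4B inhibitors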
Chain of Phospholipase A2 (P04054 whole entry): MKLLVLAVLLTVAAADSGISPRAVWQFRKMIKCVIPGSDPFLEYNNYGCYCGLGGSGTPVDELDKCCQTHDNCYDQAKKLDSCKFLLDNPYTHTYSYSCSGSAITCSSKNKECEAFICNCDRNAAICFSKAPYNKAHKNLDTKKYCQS

Protein Tat = target: T4, Protein Tat (Human immunodeficiency virus type 1 group M subtype B (isolate HXB2)(HIV-1), UniProt P04608); format: functional;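 further: tat binding to TAR RNA read out by fluorescence polarization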
T4 sequence (P04608 whole entry): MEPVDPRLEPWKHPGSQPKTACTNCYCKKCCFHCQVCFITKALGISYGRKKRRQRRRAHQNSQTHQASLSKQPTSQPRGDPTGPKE

[12] = THP-1 cell cytotoxicity, dose response, cytotoxicity control for Vif-APOBEC3G degradation inhibitor project, THP-1 cells (AID 1117359); format: functional; conditions: Human immunodeficiency virus 1, THP-1
Escherichia coli [13] = assay: microbe, parasite or virus in culture
Escherichia coli [14] = assay: microbe, parasite or virus in culture; remark: listed apart in the source

Question: With `Cc1ccc(C(NC(=O)C(C)C)c2ccc3cccnc3c2O)cc1` (stereo not given) as the compound, how does the IC50 (HEK293 [1]) read?
Answer: 8.28 µM (active)

Question: What about the IC50 (Jurkat [2]) of the same compound?
Answer: 3.26 µM (active)

Question: What about the IC50 (HEK293 [3]) of the same compound?
Answer: 6.33 µM (active)

Question: With `Clc1cc(Cl)cc(CNc2ncncc2-c2ccc3c(c2)OCO3)c1` as the compound, how does the AC50 [4] read?
Answer: 0.0305 µM (active)

Question: What does the source list for `Nc1nc(Cl)nc2c1ncn2C1CC(O)C(CO)O1` (stereo not given)?
Answer: EC50 [5]: 0.544 µM (active); EC50 [6]: 3.61 µM (active); EC50 [7]: 79.9 µM (active); EC50 [8]: 0.567 µM (active); IC50 (Jurkat [9]): 2.36 µM (active); IC50 [10]: > 80 µM (inactive); GI50 (P388/ADR): 0.0535 µM (active); GI50 (SN12K1): 0.695 µM (active); GI50 (P388): 0.0428 µM (active)

Question: What does the source list for `C[C@H]1c2cccc(O)c2C(=O)C2=C(O)[C@]3(O)C(=O)C(C(N)=O)=C(O)[C@@H](N(C)C)[C@@H]3[C@@H](O)[C@@H]21`?
Answer: EC50 [11]: 37.9 µM (active); IC50 (Cysteine protease ATG4B): 10.4 µM (active); IC50 (Phospholipase A2): 42.9 µM (inactive); IC50 (Protein Tat): > 100 µM (active); CC50 [12]: 36 µM (active); AC50 (Escherichia coli [13]): 20.8 µM (active); AC50 (Escherichia coli [14]): 0.783 µM (active)
